Experiments:
[1] = system: Non-alcoholic steatohepatitis model mice (C57BL/6NASH mice); assay: Weight gain in hepatitis model mice (Test Example 2); format: in vivo; details: Resveratrol group (group R): feed blended with 0.4 mass % of resveratrol, ad libitum
[2] = system: Non-alcoholic steatohepatitis model mice (C57BL/6NASH mice); assay: AST value in plasma (Test Example 3); format: in vivo; details: group R: feed with 0.4 mass % of resveratrol; week 0 to week 4; vs control group
Text: (§1) Non-alcoholic steatohepatitis model mice (Japan Charles River Co., Ltd., C57BL/6NASH mice, male) were purchased at the age of six weeks, acclimated for two days, and reared six per cage. The mice were reared in a constant temperature/constant humidity room maintained on a 12-hour light-dark cycle (light: 8 a.m. to 8 p.m.). After the acclimation phase, the feeds shown below were fed ad libitum in accordance with the test group. • Control group (group C): control feed not blended with test substance • Resveratrol group (group R): feed blended with 0.4 mass % of resveratrol (Tokyo Chemical Industry Co., Ltd.) • ARs high dose group (group AH): feed blended with 0.9 mass % of ARs • ARs low dose group (group AL): feed blended with 0.3 mass % of ARs The body weight was measured once a day during the test phase. Blood samples were also drawn once a week. Blood was drawn from the caudal vein of the mice, and plasma was obtained. The plasma was stored at −80° C. until being used in measurement. Also, after the body weight was measured on the final day of the test, blood was drawn under anesthesia by diethyl ether. The liver was removed immediately after sacrifice, weighed, and frozen by dry ice. […] The aspartate aminotransferase (AST) value and alanine aminotransferase (ALT) value in the plasma, which are general indicators of liver function, were measured. […]

[3] = system: Non-alcoholic steatohepatitis model mice (C57BL/6NASH mice); assay: ALT value in plasma (Test Example 3); format: in vivo; details: group R: feed with 0.4 mass % of resveratrol; week 0 to week 4; vs control group
Text: as §1

[4] = system: Non-alcoholic steatohepatitis model mice (C57BL/6NASH mice); assay: Triglyceride level in liver tissue (Test Example 4); format: in vivo; details: group R: feed with 0.4 mass % of resveratrol; control group 130 mg/g
Text: Non-alcoholic steatohepatitis model mice (Japan Charles River Co., Ltd., C57BL/6NASH mice, male) were purchased at the age of six weeks, acclimated for two days, and reared six per cage. The mice were reared in a constant temperature/constant humidity room maintained on a 12-hour light-dark cycle (light: 8 a.m. to 8 p.m.). After the acclimation phase, the feeds shown below were fed ad libitum in accordance with the test group. • Control group (group C): control feed not blended with test substance • Resveratrol group (group R): feed blended with 0.4 mass % of resveratrol (Tokyo Chemical Industry Co., Ltd.) • ARs high dose group (group AH): feed blended with 0.9 mass % of ARs • ARs low dose group (group AL): feed blended with 0.3 mass % of ARs The body weight was measured once a day during the test phase. Blood samples were also drawn once a week. Blood was drawn from the caudal vein of the mice, and plasma was obtained. The plasma was stored at −80° C. until being used in measurement. Also, after the body weight was measured on the final day of the test, blood was drawn under anesthesia by diethyl ether. The liver was removed immediately after sacrifice, weighed, and frozen by dry ice. […] A quantity of 0.5 mL of normal saline was added to the recovered supernatant and mixed for several seconds. […] The resultant mixture served as a sample, and the triglyceride level was measured. […]

[5] = system: Non-alcoholic steatohepatitis model mice (C57BL/6NASH mice); assay: Pathology evaluation of liver tissue by HE stain (Test Example 5); format: in vivo; details: group R: feed with 0.4 mass % of resveratrol; vs control group
Text: Non-alcoholic steatohepatitis model mice (Japan Charles River Co., Ltd., C57BL/6NASH mice, male) were purchased at the age of six weeks, acclimated for two days, and reared six per cage. The mice were reared in a constant temperature/constant humidity room maintained on a 12-hour light-dark cycle (light: 8 a.m. to 8 p.m.). After the acclimation phase, the feeds shown below were fed ad libitum in accordance with the test group. • Control group (group C): control feed not blended with test substance • Resveratrol group (group R): feed blended with 0.4 mass % of resveratrol (Tokyo Chemical Industry Co., Ltd.) • ARs high dose group (group AH): feed blended with 0.9 mass % of ARs • ARs low dose group (group AL): feed blended with 0.3 mass % of ARs The body weight was measured once a day during the test phase. Blood samples were also drawn once a week. Blood was drawn from the caudal vein of the mice, and plasma was obtained. The plasma was stored at −80° C. until being used in measurement. Also, after the body weight was measured on the final day of the test, blood was drawn under anesthesia by diethyl ether. The liver was removed immediately after sacrifice, weighed, and frozen by dry ice. The liver was divided into halves, and each was placed in a 1.5 mL tube and frozen at −80° C. Frozen liver tissue was embedded in paraffin and sliced. […]

[6] = system: intracellular mitochondria number of liver tissue; assay: Intracellular mitochondria number of liver tissue, weight ratio of mitochondrial DNA to genomic DNA (Test Example 8); format: in vivo, mice; details: group R: feed with 0.4 mass % of resveratrol; vs control group
Protocol: In this test example, the intracellular mitochondria number of the liver tissue was examined. Specifically, the intracellular mitochondria number of the liver tissue was evaluated by comparing the weight ratio of mitochondrial DNA to genomic DNA, measured by quantitative PCR as follows. DNA was extracted from liver tissue using a “NucleoSpin (registered trademark) Tissue kit (manufactured by Takara Bio Inc.)” according to the company's instructions. Each DNA copy number was quantified using a “Mouse Feeder Cell Quantification Kit (manufactured by Takara Bio Inc.)” according to the company's instructions. Primers having the following sequences were used. The PCR reaction was carried out under the following conditions. (95° C.,30 seconds→95° C.,5 seconds→60° C.,30 seconds)×40 cycles→95° C.,60 seconds For the weight ratio of measured mitochondrial DNA to genomic DNA, the relative values of each group were compared, taking the control group (group C) as 100%.

For `Oc1ccc(C=Cc2cc(O)cc(O)c2)cc1` [resveratrol], the “weight gain during the test phase” value [1] was “weight gain suppression in the hepatitis model mice could not be improved”, the “changes in AST value in plasma” value [2] was “the changes were almost the same as the control group” and the “changes in ALT value in plasma” value [3] was “the changes were almost the same as the control group”. For the same molecule, the “triglyceride level in liver tissue” value [4] was “could not be corrected”, the “blank spaces derived from fat droplets in HE stained liver tissue” value [5] was “virtually no effect was seen” and the “intracellular mitochondria number of liver tissue (weight ratio of mitochondrial DNA to genomic DNA)” value [6] was “no changes in intracellular mitochondria number were seen”.
